From PubChem BioAssay AID330 (DTP/NCI, 2004)
Values joined by “and” are separate entries in the source; they are usually repeats but may differ in a detail not shown here. Equal entries are not always repeated. Toxic doses and inconclusive results are not listed.

Tested on: P388 leukemia ip, CD2F1 mice, survival T/C
Assay: NCI In Vivo Anticancer Drug Screen. Data for tumor model P388 Leukemia (intraperitoneal) in CD2F1 (CDF1) mice
Conditions: endpoint: median survival time, higher = longer survival
How it was run: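 Mice carrying the transplanted tumor received test compound or vehicle. Survival was recorded in each group, and the value is the treated-group measurement divided by that of the vehicle-treated control group.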

## CC1OC(=O)C(C(C)C)NC(=O)C(C(C)C)OC(=O)C(C(C)C)NC(=O)C(C)OC(=O)C(C(C)C)NC(=O)C(C(C)C)OC(=O)C(C(C)C)NC(=O)C(C)OC(=O)C(C(C)C)NC(=O)C(C(C)C)OC(=O)C(C(C)C)NC1=O (stereo unspecified)
dose: 0.03 mg/kg/injection, schedule: Q01DX009 (ip), vehicle: other
  T/C: 113 % of control
dose: 0.1 mg/kg/injection, schedule: Q01DX005 (ip), vehicle: DMSO
  T/C: 110 % of control
dose: 0.1 mg/kg/injection, schedule: Q01DX005 (ip), vehicle: other
  T/C: 108 % of control
dose: 0.12 mg/kg/injection, schedule: Q01DX009 (oral), vehicle: other
  T/C: 102 % of control
dose: 0.2 mg/kg/injection, schedule: Q01DX005 (ip), vehicle: DMSO
  T/C: 116 % of control
dose: 0.2 mg/kg/injection, schedule: Q01DX005 (ip), vehicle: other
  T/C: 110 % of control
dose: 0.23 mg/kg/injection, schedule: Q01DX009 (oral), vehicle: other
  T/C: 96 % of control
dose: 0.25 mg/kg/injection, schedule: Q01DX009 (ip), vehicle: other
  T/C: 154 % of control
dose: 0.4 mg/kg/injection, schedule: Q01DX005 (ip), vehicle: other
  T/C: 120 % of control
dose: 0.47 mg/kg/injection, schedule: Q01DX009 (ip), vehicle: Klucel (hydroxypropylcellulose) (HPC)
  T/C: 155 % of control
dose: 0.47 mg/kg/injection, schedule: Q01DX009 (oral), vehicle: other
  T/C: 98 % of control
dose: 0.5 mg/kg/injection, schedule: Q01DX009 (ip), vehicle: Klucel (hydroxypropylcellulose) (HPC)
  T/C: 116 % of control
dose: 0.5 mg/kg/injection, schedule: Q01DX009 (ip), vehicle: other
  T/C: 100 % of control
dose: 0.62 mg/kg/injection, schedule: Q01DX009 (ip), vehicle: saline
  T/C: 111 % of control and 97 % of control
dose: 0.94 mg/kg/injection, schedule: Q01DX009 (oral), vehicle: Klucel (hydroxypropylcellulose) (HPC)
  T/C: 103 % of control
dose: 0.94 mg/kg/injection, schedule: Q01DX009 (oral), vehicle: other
  T/C: 93 % of control
dose: 1.0 mg/kg/injection, schedule: Q01DX005 (ip), vehicle: Klucel (hydroxypropylcellulose) (HPC)
  T/C: 155 % of control
dose: 1.25 mg/kg/injection, schedule: Q01DX009 (ip), vehicle: saline
  T/C: 94 % of control
dose: 1.88 mg/kg/injection, schedule: Q01DX009 (ip), vehicle: Klucel (hydroxypropylcellulose) (HPC)
  T/C: 161 % of control
dose: 1.88 mg/kg/injection, schedule: Q01DX009 (oral), vehicle: Klucel (hydroxypropylcellulose) (HPC)
  T/C: 108 % of control
dose: 2.0 mg/kg/injection, schedule: Q01DX005 (ip), vehicle: Klucel (hydroxypropylcellulose) (HPC)
  T/C: 165 % of control
dose: 2.5 mg/kg/injection, schedule: Q01DX009 (ip), vehicle: saline
  T/C: 87 % of control and 94 % of control
dose: 3.75 mg/kg/injection, schedule: Q01DX009 (oral), vehicle: Klucel (hydroxypropylcellulose) (HPC)
  T/C: 106 % of control
dose: 4.0 mg/kg/injection, schedule: Q01DX005 (ip), vehicle: Klucel (hydroxypropylcellulose) (HPC)
  T/C: 160 % of control and 162 % of control
dose: 5.0 mg/kg/injection, schedule: Q01DX009 (ip), vehicle: Klucel (hydroxypropylcellulose) (HPC)
  T/C: 162 % of control
dose: 5.0 mg/kg/injection, schedule: Q01DX009 (ip), vehicle: saline with Tween-80
  T/C: 106 % of control
dose: 5.0 mg/kg/injection, schedule: Q01DX009 (ip), vehicle: saline
  T/C: 87 % of control and 93 % of control
dose: 7.5 mg/kg/injection, schedule: Q01DX009 (ip), vehicle: Klucel (hydroxypropylcellulose) (HPC)
  T/C: 88 % of control
dose: 7.5 mg/kg/injection, schedule: Q01DX009 (oral), vehicle: Klucel (hydroxypropylcellulose) (HPC)
  T/C: 88 % of control
dose: 8.0 mg/kg/injection, schedule: Q01DX005 (ip), vehicle: Klucel (hydroxypropylcellulose) (HPC)
  T/C: 159 % of control and 162 % of control
dose: 10.0 mg/kg/injection, schedule: Q01DX009 (ip), vehicle: Klucel (hydroxypropylcellulose) (HPC)
  T/C: 97 % of control
dose: 10.0 mg/kg/injection, schedule: Q04DX003 (ip), vehicle: saline with Tween-80
  T/C: 151 % of control and 167 % of control
dose: 16.0 mg/kg/injection, schedule: Q01DX005 (ip), vehicle: Klucel (hydroxypropylcellulose) (HPC)
  T/C: 163 % of control
dose: 20.0 mg/kg/injection, schedule: Q04DX003 (ip), vehicle: saline with Tween-80
  T/C: 108 % of control
dose: 6.25 micrograms/kg/injection, schedule: Q03HX008 (ip), vehicle: other
  T/C: 101 % of control
dose: 6.25 micrograms/kg/injection, schedule: Q03HX020 (ip), vehicle: other
  T/C: 118 % of control
dose: 6.25 micrograms/kg/injection, schedule: Q12HX004 (iv), vehicle: other
  T/C: 101 % of control
dose: 6.25 micrograms/kg/injection, schedule: Q12HX010 (ip), vehicle: other
  T/C: 111 % of control
dose: 6.25 micrograms/kg/injection, schedule: Q12HX010 (iv), vehicle: other
  T/C: 102 % of control
dose: 12.5 micrograms/kg/injection, schedule: Q01DX001 (iv), vehicle: other
  T/C: 97 % of control
dose: 12.5 micrograms/kg/injection, schedule: Q01DX005 (ip), vehicle: other
  T/C: 103 % of control and 107 % of control
